Consider 47 molecules from patent US20240368096A1 (Enanta Pharmaceuticals, Inc., priority 2022, published 2024).

The term EC50 denotes the concentration at which the effect is half-maximal.

The subject of the first experiment is HBV. Nature of the experiment: HBV infection in HepG2-NTCP cells (HBeAg AlphaLISA in supernatants). It is filed as cell-based. The settings on record: Hepatitis B virus, 192 h, read-out: Cellular EC50 (μM). The method in brief:
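HepG2-NTCP A3 cells were pre-incubated 2 h with 3-fold serially diluted compounds, then infected with HBV at 2000 GE/cell with 4% PEG (0.5% DMSO final). After washing on day 1, cells stayed in 2.5% DMSO medium; supernatant HBeAg measured by AlphaLISA on day 8, EC50 versus DMSO controls.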
For orientation: Alpha assays give light when donor and acceptor beads are brought close together.
With `CCOP(=O)(OCC)c1cccc(-c2cc3c(cc2Cl)N(c2ccccc2)C[C@@H](CC(C)C)N(C)S3(=O)=O)c1` [Example 169], the EC50 was above 1 µM.

The experiment is the same for the next values; noted with them: Hepatitis B virus, 192 h; HBV infection of HepG2-NTCP cells; HBeAg in supernatants at day 8 post infection; read-out: Cellular EC50.
`CN1[C@H](C2CCCCC2)CN(c2ccccc2)c2cc(Cl)c(-c3cccc(C(=O)O)n3)cc2S1(=O)=O` [Example 138, (R)-6-(7-chloro-3-cyclohexyl-2-methyl-1,1-dioxido-5-phenyl-2,3,4,5-tetrahydrobenzo[f][1,2,5]thiadiazepin-8-yl)picolinic acid]: the 50% effective concentration (EC50) lay in the range of 0.1 to 1 µM. As for `CN1[C@H](C2CCCCC2)CN(c2ccnc(F)c2)c2cc(Cl)c(-c3ccc(F)c(C(=O)O)c3)cc2S1(=O)=O` [Example 284], the EC50 is below 0.1 µM. Still for that read-out and setting: the value for `CN1[C@H](C2CC(F)(F)C2)CN(c2ccccc2)c2cc(Cl)c(-c3cc(F)c(F)c(C(=O)O)c3)cc2S1(=O)=O` [Example 31] was 0.1 to 1 µM.

In the case of `CN1C(CC2CCCC2)CN(c2ccccc2)c2cc(Cl)c(-c3ccc(Cl)c(C(=O)O)c3)cc2S1(=O)=O` (centres unmarked) [Example 78], the concentration for a half-maximal effect (EC50) is 0.1 to 1 µM.

Consider `CN1[C@H](C2CCCCC2)CN(c2ccccc2)c2cc(OCCCC3CCN(C(=O)OC(C)(C)C)CC3)c(-c3ccc(F)c(C(=O)O)c3)cc2S1(=O)=O` [Example 368], for which the concentration giving a half-maximal response (EC50) is below 0.1 µM. For the molecule `CC(C)C[C@@H]1CN(C(C)C)c2cc(Oc3ccccc3F)c(-c3ccc(F)c(C(=O)O)c3)cc2S(=O)(=O)N1C` [Example 468], the concentration giving a half-maximal response (EC50) was 0.1 to 1 µM. Still for that read-out and setting: the same measure for `CCCC[C@@H]1CN(c2ccccc2)c2cc(Oc3cccc(OC)c3)c(-c3ccc(F)c(C(=O)O)c3)cc2S(=O)(=O)N1C` [Example 420]: 0.1 to 1 µM; for `CN1[C@H](C2CCCCC2)CN(c2ccccc2)c2cc(Cl)c(-c3ccc(OC(F)(F)F)c(C(=O)O)c3)cc2S1(=O)=O` [Example 174]: 0.1 to 1 µM; for `CN1[C@H](C2CCCCC2)CN(c2ccccc2)c2cc(Cl)c(-c3ccc4oncc4c3)cc2S1(=O)=O` [Example 202]: 0.1 to 1 µM. As for `CN1[C@H](C2CCCCC2)CNc2cc(C3CCN(C(=O)OC(C)(C)C)CC3)c(-c3ccc(F)c(C(=O)O)c3)cc2S1(=O)=O` [Example 584, (R)-5-(7-(1-(tert-butoxycarbonyl)piperidin-4-yl)-3-cyclohexyl-2-methyl-1,1-dioxido-2,3,4,5-tetrahydrobenzo[f][1,2,5]thiadiazepin-8-yl)-2-fluorobenzoic acid], the 50% effective concentration (EC50) lay in the range of 0.1 to 1 µM. On to `CN1[C@H](C2COC2)CN(c2ccccc2)c2cc(Cl)c(-c3ccc(F)c(C(=O)O)c3)cc2S1(=O)=O` [Example 106], for which the EC50 was above 1 µM. Same read-out and setting: the same measure for `CC(C)C[C@@H]1CN(c2ccccc2)c2cc(OCc3cncs3)c(-c3ccc(F)c(C(=O)O)c3)cc2S(=O)(=O)N1C` [Example 458]: below 0.1 µM. Same read-out and setting: the same measure for `CC(C)C[C@@H]1CN(c2ccccc2)c2cc(Nc3cccc(F)c3)c(-c3ccc(Cl)c(C(=O)O)c3)cc2S(=O)(=O)N1C` [Example 547]: 0.1 to 1 µM; for `COC(C)(C)CCOC(=O)Nc1cc(-c2cc3c(cc2Cl)N(c2ccccc2)C[C@@H](C2CCCCC2)N(C)S3(=O)=O)sc1C(=O)O` [Example 261]: 0.1 to 1 µM; for `CN1[C@H](CN2CCC(F)(F)CC2)CN(c2ccccc2)c2cc(Cl)c(-c3ccc(F)c(C(=O)O)c3)cc2S1(=O)=O` [Example 113]: above 1 µM. Still for that read-out and setting: the same measure for `CN1[C@H](C2CCCCC2)CN(c2ccccc2)c2cc(Cl)c(-c3cccc(P(=O)(O)O)c3)cc2S1(=O)=O` [Example 232, (R)-(3-(7-chloro-3-cyclohexyl-2-methyl-1,1-dioxido-5-phenyl-2,3,4,5-tetrahydrobenzo[f][1,2,5]thiadiazepin-8-yl)phenyl)phosphonic acid]: 0.1 to 1 µM; for `CN1[C@H](C2CCCCC2)CN(c2ccccc2)c2cc(OC3CC(C)(C)C3)c(-c3ccc(F)c(C(=O)O)c3)cc2S1(=O)=O` [Example 375]: below 0.1 µM; for `CC(C)C[C@@H]1CN(c2ccccc2)c2cc(OC(C)(C)c3ccccc3)c(-c3ccc(Cl)c(C(=O)O)c3)cc2S(=O)(=O)N1C` [Example 455]: 0.1 to 1 µM. As to `CN1[C@H](C2CCCCC2)CN(c2ccccc2)c2cc(OCCc3ccco3)c(-c3ccc(F)c(C(=O)O)c3)cc2S1(=O)=O` [Example 345], the EC50 was below 0.1 µM.

On to `CCOc1cccc(N2C[C@@H](C3CCCCC3)N(C)S(=O)(=O)c3cc(-c4ccc(F)c(C(=O)O)c4)c(Cl)cc32)c1` [Example 308], for which the 50% effective concentration (EC50) was below 0.1 µM. For `CC(C)C[C@@H]1CN(c2ccccc2)c2cc(Oc3ccc(OC(F)(F)F)cc3)c(-c3ccc(F)c(C(=O)O)c3)cc2S(=O)(=O)N1C` [Example 439], the half-maximal effective concentration (EC50) was below 0.1 µM. Consider `CC(C)Oc1ccccc1COc1cc2c(cc1-c1cc(F)c(C(=O)O)s1)S(=O)(=O)N(C)[C@H](C1CCCCC1)CN2c1ccccc1` [Example 505], for which the half-maximal effective concentration (EC50) was below 0.1 µM. Consider `CCCC[C@H]1CN(c2ccccc2)c2cc(N(C)c3ccc(F)cc3)c(-c3cccc(C(=O)O)c3)cc2S(=O)(=O)N1C` [Example 541], for which the EC50 is above 1 µM. Still for that read-out and setting: the value for `CC(C)C[C@@H]1CN(c2ccccc2)c2cc(-c3ccc4ncoc4c3)c(-c3ccc(F)c(C(=O)O)c3)cc2S(=O)(=O)N1C` [Example 579] was 0.1 to 1 µM. Regarding `CN1[C@H](C2CCCCC2)CN(c2ccccc2)c2cc(OCCc3ccsc3)c(-c3ccc(F)c(C(=O)O)c3)cc2S1(=O)=O` [Example 346], the EC50 is 0.1 to 1 µM.

`CN1[C@H](C2CCCCC2)CN(c2ccccc2)c2cc(Cl)c(-c3ccc(C(F)(F)F)c(C(=O)O)c3)cc2S1(=O)=O` [Example 143, (R)-5-(7-chloro-3-cyclohexyl-2-methyl-1,1-dioxido-5-phenyl-2,3,4,5-tetrahydrobenzo[f][1,2,5]thiadiazepin-8-yl)-2-(trifluoromethyl)benzoic acid]: the EC50 was in the range of 0.1 to 1 µM.

As for `CC(C)C[C@@H]1CN(c2ccccc2)c2cc(N3CCCc4ccccc43)c(-c3ccc(Cl)c(C(=O)O)c3)cc2S(=O)(=O)N1C` [Example 557], the EC50 was 0.1 to 1 µM.

Take `CC(C)C[C@@H]1CN(c2ccccc2)c2cc(Cl)c(-c3cccc(S(N)(=O)=O)c3)cc2S(=O)(=O)N1C` [Example 168]: the EC50 was above 1 µM. The same measure, in the same setting: the same measure for `CN1[C@H](C2CCCCC2)CNc2cc(-c3ccccc3F)c(-c3ccc(F)c(C(=O)O)c3)cc2S1(=O)=O` [Example 569, (R)-5-(3-cyclohexyl-7-(2-fluorophenyl)-2-methyl-1,1-dioxido-2,3,4,5-tetrahydrobenzo[f][1,2,5]thiadiazepin-8-yl)-2-fluorobenzoic acid]: below 0.1 µM.

In the case of `COC[C@@H]1CN(c2ccccc2)c2cc(Cl)c(-c3ccc(F)c(C(=O)O)c3)cc2S(=O)(=O)N1C` [Example 95], the half-maximal effective concentration (EC50) lay within 0.1 to 1 µM. The same measure, in the same setting: the same measure for `CN1[C@H](CC2CC2)CN(c2ccccc2)c2cc(Cl)c(-c3cncc(C(=O)O)c3)cc2S1(=O)=O` [Example 74]: above 1 µM; for `CSc1cc2c(cc1-c1cccc(C(=O)O)c1)S(=O)(=O)N1CC(C)(C)CC1CN2c1ccccc1` (centres unmarked) [Example 19]: 0.1 to 1 µM; for `CC(C)C[C@@H]1CN(c2ccccc2)c2cc(Oc3ccc(C(F)(F)F)cc3)c(-c3ccc(F)c(C(=O)O)c3)cc2S(=O)(=O)N1C` [Example 426]: 0.1 to 1 µM. The same measure, in the same setting: the same measure for `CC(C)C[C@@H]1CN(c2ccccc2)c2cc(N(C)c3ccc(F)cc3)c(-c3ccc(Cl)c(C(=O)O)c3)cc2S(=O)(=O)N1C` [Example 554]: 0.1 to 1 µM. Still for that read-out and setting: the same measure for `CN1[C@H](Cc2ccc(Cl)cc2)CN(c2ccccc2)c2cc(Cl)c(-c3ccc(F)c(C(=O)O)c3)cc2S1(=O)=O` [Example 49]: above 1 µM; for `CN1[C@H](C2CCCCC2)CN(c2ccccc2)c2cc(Cl)c(-c3cc(C(=O)O)c(Cl)s3)cc2S1(=O)=O` [Example 123]: below 0.1 µM.

Consider `CN1[C@H](C2CCCCC2)CN(c2ccccc2)c2cc(OCC(F)(F)F)c(-c3ccc(NC(=O)OCc4ccccc4)c(C(=O)O)c3)cc2S1(=O)=O` [Example 480], for which the 50% effective concentration (EC50) is below 0.1 µM. In the case of `CC(C)C[C@@H]1CN(c2ccccc2)c2cc(-c3cccnc3)c(-c3ccc(F)c(C(=O)O)c3)cc2S(=O)(=O)N1C` [Example 580], the concentration giving a half-maximal response (EC50) is below 0.1 µM. Still for that read-out and setting: the value for `CN1[C@H](C2CCCCC2)CN(c2ccccc2)c2cc(C3CCN(C(=O)c4ccno4)CC3)c(-c3ccc(F)c(C(=O)O)c3)cc2S1(=O)=O` [Example 599] was above 1 µM. On the same count and under the same terms, the value for `CO[C@H]1C[C@@H](Oc2cc3c(cc2-c2ccc(F)c(C(=O)O)c2)S(=O)(=O)N(C)[C@H](C2CCCCC2)CN3c2ccccc2)C1` [Example 379] was 0.1 to 1 µM; that for `CN1[C@H](CN=[N+]=[N-])CN(c2ccccc2)c2cc(Cl)c(-c3ccc(F)c(C(=O)O)c3)cc2S1(=O)=O` [Example 99, (S)-5-(3-(azidomethyl)-7-chloro-2-methyl-1,1-dioxido-5-phenyl-2,3,4,5-tetrahydrobenzo[f][1,2,5]thiadiazepin-8-yl)-2-fluorobenzoic acid] was above 1 µM. On the same count and under the same terms, the same measure for `Cc1csc(COc2cc3c(cc2-c2cc(F)c(C(=O)O)s2)S(=O)(=O)N(C)[C@H](C2CCCCC2)CN3c2ccccc2)n1` [Example 501]: below 0.1 µM; for `CC(C)C[C@@H]1CN([C@@H]2CCOC2)c2cc(Oc3ccccc3F)c(-c3ccc(F)c(C(=O)O)c3)cc2S(=O)(=O)N1C` [Example 470]: 0.1 to 1 µM; for `CC(C)C[C@@H]1CN(c2ccccc2)c2cc(Cl)c(-c3ccc(OCC(F)(F)F)c(C(=O)O)c3)cc2S(=O)(=O)N1C` [Example 214, (R)-5-(7-chloro-3-isobutyl-2-methyl-1,1-dioxido-5-phenyl-2,3,4,5-tetrahydrobenzo[f] [1,2,5]thiadiazepin-8-yl)-2-(2,2,2-trifluoroethoxy)benzoic acid]: 0.1 to 1 µM. In the case of `CCCOC(=O)Nc1cc(-c2cc3c(cc2Cl)N(c2ccccc2)C[C@@H](C2CCCCC2)N(C)S3(=O)=O)sc1C(=O)O` [Example 243], the EC50 was below 0.1 µM. Same read-out and setting: the same measure for `CN1[C@H](C2CCCCC2)CN(c2ccccc2)c2cc(OCc3ccsc3Cl)c(-c3cc(F)c(C(=O)O)s3)cc2S1(=O)=O` [Example 489]: below 0.1 µM.
